The source of these data is US20110112121A1, “Pharmaceutical Compositions and Solid Forms” (priority 2009, published 2011).

Series [1] is described as follows: Stability of crystal forms under ambient conditions. Format: physicochemical.
In series [2] the test system is VEGF-induced extravasation. In words: Miles assay in domestic pigs. In kind it is in vivo. Here is the method: (§1) Vascular endothelial growth factors (VEGFs) have angiogenic and vascular permeability-promoting activities in vitro and in vivo. […] Young domestic pigs were used because pig skin is very similar to human skin in architecture and permeability for xenobiotics. Inhibition of dermal angiogenesis related to the agent of the invention was tested with an “matrigel” assay which was developed for studies in pigs; inhibition of vascular permeability in the skin with a modified Miles assay. With matrigel implants into which endothelial cells immigrate to form new vessels anti-angiogenic effects of applied test articles can be assessed in vivo; with the Miles assay, extravasation of Evans blue-labeled albumin is measured after VEGF-induced vascular leakage.
Method: Test areas of 5×20 cm on both paramedian ventral abdominal sides of 16-18 kg weighing domestic pigs were topically treated with 1 ml of 0.8% 6-(6-hydroxymethyl-pyrimidin-4-yloxy)-naphthalene-1-carboxylic acid (3-trifluoromethyl-phenyl)-amide trice (30, 7 and 3 hrs prior to elicitation of vascular leakage with VEGF). […] Evans blue was extracted from the biopsies with 0.5 ml formamide and the concentration of Evans blue in the supernatants was measured photometrically. […]

Series [3] is described as follows: Solubility of the agent in hydrophilic and hydrophobic media. In kind it is physicochemical. The following applies: hydrophilic and hydrophobic media (aqueous and oily media).
The test system of a further series is dermal angiogenesis. In words: Matrigel assay in domestic pigs. In kind it is in vivo. On the procedure: as §1
Method: Test areas on both paramedian ventral abdominal sides of 16-18 kg weighing domestic pigs were topically treated with 0.5% 6-(6-hydroxymethyl-pyrimidin-4-yloxy)-naphthalene-1-carboxylic acid (3-trifluoromethyl-phenyl)-amide or the vehicle (ethanol/propylene glycol 3/7) alone. Treatment was performed twice daily on days 1-4. On day 2, 100 μl matrigel, loaded with the angiogenic factors […] VEGF-165 and 40 U/ml heparin were injected intradermally at 10 different sites of the treated areas. On day 5, the animals were sacrificed and 8 mm punches from the injection sites collected, the subcutaneous fatty tissue removed, the hemorrhagic plugs carefully dissected and weighed. Thereafter, the samples were digested with dispase and single cell suspensions prepared. The isolated cells were stained with the endothelial cell marker CD31 or isotype controls and analyzed with FACS after gating for endothelial cells.

Where [4] appears, read: 0.5% in ethanol:propylene glycol 3/7, topical twice daily days 1-4, plugs excised day 5.

Several values for one entry are separate records, joined by “and”; a condition that tells them apart may be missing. Equal entries are not always repeated.

For `O.O=C(Nc1cccc(C(F)(F)F)c1)c1cccc2cc(Oc3cc(CO)ncn3)ccc12.O=C(Nc1cccc(C(F)(F)F)c1)c1cccc2cc(Oc3cc(CO)ncn3)ccc12` [Crystal form B, 6-(6-Hydroxymethyl-pyrimidin-4-yloxy)-naphthalene-1-carboxylic acid (3-trifluoromethyl-phenyl)-amide hemihydrate, modification B], in series [1], the “stability of the modification (in words)” value is given as “particularly stable modification”.
In the case of `O=C(Nc1cccc(C(F)(F)F)c1)c1cccc2cc(Oc3cc(CO)ncn3)ccc12` [agent of the invention, 6-(6-hydroxymethyl-pyrimidin-4-yloxy)-naphthalene-1-carboxylic acid (3-trifluoromethyl-phenyl)-amide], the “inhibition of VEGF-induced extravasation” value in series [2] (0.8% agent topically 30, 7 and 3 hrs before VEGF 165, vs placebo) turned out to be 24%. In addition, the “Evans blue concentration (μg/ml tissue extract)” value in series [2] (0.8% agent, 1 ml topically 30, 7 and 3 hrs before VEGF 165 injection, biopsies 30 min after challenge) was 1.26 (0.13)++ μg/ml tissue extract. Moreover, the “solubility properties (in words)” value in series [3] is “very poor solubility properties”. In addition, the “difference in CD31+ cell number vs vehicle-treated sites” value in the series with dermal angiogenesis (0.5% epicutaneously, gated on endothelial cells) came to 66%. Also, the “plug weight less than vehicle-treated sites” value in the series on dermal angiogenesis (0.5% epicutaneously, vs vehicle) is 19%. In addition, in the series with dermal angiogenesis (setting [4]), the “Cell counts (CD31+)/μl, gated on endothelial cells” value came out at 353 µL⁻¹; the “Weight (mg) of excised plugs” value is 88 mg and 87.8 mg.
